#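 Cells were grown in 96-well plates and exposed to each compound for 48 hours at five concentrations; endpoints were interpolated linearly between bracketing concentrations, or set to the highest concentration if not reached. GI50: concentration for 50% inhibition of growth. TGI denotes the concentration required for complete inhibition of growth.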
# Columns and labels:
# Assay in all cases: NCI anticancer screen, dose series, 48 h
# M14 melanoma = tested on: M14 melanoma
# CAKI-1 renal = tested on: CAKI-1 renal
# TK-10 renal = tested on: TK-10 renal
# NCI-H23 lung = tested on: NCI-H23 lung
# HOP-62 NSCLC = tested on: HOP-62 NSCLC
# EKVX NSCLC = tested on: EKVX NSCLC
# UACC-62 melanoma = tested on: UACC-62 melanoma
# UO-31 renal = tested on: UO-31 renal
# HL-60(TB) leukemia = tested on: HL-60(TB) leukemia
# PC-3 prostate = tested on: PC-3 prostate
# U251 CNS = tested on: U251 CNS
# OVCAR-4 ovarian = tested on: OVCAR-4 ovarian
# DMS 273 small cell lung = tested on: DMS 273 small cell lung
# DU-145 prostate = tested on: DU-145 prostate
# A549 NSCLC = tested on: A549 NSCLC
# HS 578T breast = tested on: HS 578T breast
# BT-549 breast = tested on: BT-549 breast
# SNB-75 CNS = tested on: SNB-75 CNS
# SF-295 CNS = tested on: SF-295 CNS
compound,measurement,setting,value
C[CH2][Sn]([CH2]C)([O]C(=O)c1cccc(OC)c1)[O][Sn]([CH2]C)([CH2]C)[O]C(=O)c1cccc(OC)c1,GI50,M14 melanoma,30.9 µM
same,TGI,M14 melanoma,> 59.4 µM
same,GI50,CAKI-1 renal,11.8 µM
same,TGI,CAKI-1 renal,24.3 µM
same,GI50,TK-10 renal,16.8 µM
same,TGI,TK-10 renal,30.7 µM
same,GI50,NCI-H23 lung,17.6 µM
same,TGI,NCI-H23 lung,36.2 µM
same,GI50,HOP-62 NSCLC,> 58.2 µM
same,TGI,HOP-62 NSCLC,> 100 µM
same,GI50,EKVX NSCLC,> 40.8 µM
same,TGI,EKVX NSCLC,> 55.6 µM
same,GI50,UACC-62 melanoma,16.6 µM
same,TGI,UACC-62 melanoma,31.4 µM
same,GI50,UO-31 renal,34 µM
same,TGI,UO-31 renal,> 53.5 µM
same,GI50,HL-60(TB) leukemia,19.2 µM
same,TGI,HL-60(TB) leukemia,70.9 µM
same,GI50,PC-3 prostate,> 100 µM
same,TGI,PC-3 prostate,> 100 µM
same,GI50,U251 CNS,18.6 µM
same,TGI,U251 CNS,35.1 µM
same,GI50,OVCAR-4 ovarian,17.9 µM
same,TGI,OVCAR-4 ovarian,35.3 µM
same,GI50,DMS 273 small cell lung,22.7 µM
same,TGI,DMS 273 small cell lung,58.5 µM
same,GI50,DU-145 prostate,> 100 µM
same,TGI,DU-145 prostate,> 100 µM
same,GI50,A549 NSCLC,> 100 µM
same,TGI,A549 NSCLC,> 100 µM
same,GI50,HS 578T breast,29.3 µM
same,TGI,HS 578T breast,> 100 µM
same,GI50,BT-549 breast,15.4 µM
same,TGI,BT-549 breast,29.4 µM
same,GI50,SNB-75 CNS,14.6 µM
same,TGI,SNB-75 CNS,42.2 µM
same,GI50,SF-295 CNS,20.8 µM
same,TGI,SF-295 CNS,40.3 µM

# Source: PubChem BioAssay (NCI)
